{
  "source": "patent US10563272B2",
  "about": "“Compositions comprising Metarhizium fungi and use thereof as a pesticide” (Cotton Research and Development Corporation, priority 2015, dated 2020)",
  "key": {"[1]": {"tested_on": "green mirid adults and nymphs", "test": "Bollgard II cotton, Auscott-Togo 2012-13, Field 77 (Experiment 1): green mirids", "format": "in vivo, Creontiades dilutus", "details": "62.5 mL/ha", "protocol": "Two separate trials (Experiment 1 in Field 77; Experiment 2 in Field 63) were conducted in Bollgard II cotton crops on a commercial cotton farm at Auscott-Togo near Narrabri, New South Wales from 11 Feb. to 5 Mar. 2013 (Field 77) and 19 Feb. to 6 Mar. 2013 (Field 63). The cotton used for each of the trials was at the late squaring to pod setting and maturation stages which was fairly attractive to green mirids.\n(§1) In both trials, the efficacy of the following treatments against green mirids and predatory insects was evaluated: • 1. 250 mL/ha DAT 511 spore in oil (1×10^7 spores/ml); • 2. 500 mL/ha DAT 511 spore in oil (1×10^7 spores/ml); • 3. 1 L/ha DAT 511 spore in oil (1×10^7 spores/ml); • 4. 62.5 mL/ha of fipronil; and • 5. Unsprayed (negative control).\n(§2) The treatment plots were arranged in a randomized complete block design with six replicates per treatment. Each replicated plot measured 40 m wide (40 rows) and 90 m long.\nFoliar application of each treatment was made on 28 Feb. (for both green mirids and beneficial insects) and 13 Mar. 2012 (for beneficial insects alone) using a ground spray rig fitted with flat fan nozzles to achieve a droplet size of 200 μm. The treatment was applied during the mornings when temperatures were between 20° C. and 28° C. The timing of treatment was based on the IPM Guidelines and recommendations by CottonLogic to use an economic threshold of 0.5 green mirids per metre (Deutscher and Wilson 1999; Khan et al. 2004).\nPre-treatment counts of green mirid adults and nymphs, predatory beetles, predatory bugs, predatory lacewings and spiders were made by visual inspection of whole cotton plants. Both adults and nymphs of beneficial insects were counted. Plants were assessed in randomly selected one-metre lengths of row of each replicate (i.e. 6 m per treatment). Post-treatment counts were made 3, 7, 14 and 21 days after treatment. Data are expressed as numbers of green mirid adults and nymphs counted per metre for each treatment."}, "green mirids": {"tested_on": "green mirids", "test": "Rate trial on conventional cotton, ACRI 2011-12 (Example 9): green mirids", "format": "in vivo, Creontiades dilutus", "protocol": "This trial was conducted in an irrigated field of commercial conventional cotton at the Australian Cotton Research Institute (ACRI) farm in Narrabri, NSW, during the 2011-2012 season. The treatments in this trial were as follows: • 1. 250 mL/ha DAT 511; • 2. 500 mL/ha DAT 511; and • 3. 1 L/ha DAT 511.\nResults were compared with data from unsprayed conventional cotton crops (negative control) and conventional cotton crops treated with 62.5 mL/ha of fipronil. The population of apple dimpling bugs at the study site was higher than GVB and green mirids, and remained so throughout the season. Therefore the trials were treated and assessed from 8 Jan. to 12 Feb. 2012 for green mirids, 26 Feb. 2012 for GVB and 4 Mar. 2012 for apple dimpling bugs. The treatment plots were arranged in a randomized complete block design with eight replicates per treatment. Each replicated plot measured 16 m (16 rows) wide and 250 m long.\nFoliar applications of each treatment were made on 8 Jan. 22 Jan. and 5 Feb. 2012. The decision to apply the treatment was based on the IPM Guidelines and the CottonLogic recommended economic threshold of 0.5 green mirids per metre. Pre-treatment counts were made by visual counting of the numbers of green mirid, green vegetable bug and apple dimpling bug adults and nymphs, as well as predatory beetles, predatory bugs, predatory lacewings and spiders on cotton plants in each treatment. Post-treatment counts were made following the first spray at 7 and 14 DAT, following the second spray at 7 DAT for green mirids and GVB, and up to 28 DAT for the third spray for apple dimpling bugs. All counts were done on a randomly selected one-metre length of row of each treatment replicate (i.e. total of 8 m). Data were expressed as numbers per metre and numbers per metre per sampling date for each treatment."}, "spiders": {"tested_on": "spiders", "test": "Rate trial on conventional cotton, Norwood 2012 (Example 10): spiders", "format": "in vivo, Lycosa spp., Oxyopes spp., Salticidae spp., Araneus spp.", "details": "P>0.05", "protocol": "This trial was conducted on commercial conventional cotton crops on a farm at Norwood (29° 28'S, 149° 50′E) near Moree, NSW, from 28 Feb. to 21 Mar. 2012. The cotton used for the trial was at the early squaring stage, when it was attractive to green mirids (Khan et al. 2004).\nas §1, with “The” for “In both trials, the”, “were” for “was”, “Fipronil;” for “fipronil;”\nas §2\nFoliar application of each treatment was made on 28 Feb. (for both green mirids and beneficial insects) and 13 Mar. […]\nPre-treatment counts of adult and nymph green mirids, predatory beetles, predatory bugs, predatory lacewings and spiders were made by visual inspection of whole cotton plants. Both adults and nymphs of beneficial insects were counted. Plants were assessed in randomly selected one-metre lengths of row of each treatment replicate (i.e. 6 m per treatment). […] Data are expressed as numbers of green mirid adults and nymphs counted per metre per treatment."}},
  "data": [
    {"smiles": "N#Cc1nn(-c2c(Cl)cc(C(F)(F)F)cc2Cl)c(N)c1[S+]([O-])C(F)(F)F", "note": "(stereo not drawn) [fipronil]", "values": [
      {"measurement": "No. green mirid adults and nymphs per meter", "setting": "[1]; 3 DAT", "value": "1.33 ± 0.33", "unit": "a per meter"},
      {"measurement": "No. green mirid adults and nymphs per meter", "setting": "[1]; 7 DAT", "value": "0.00 ± 0.00", "unit": "b per meter"},
      {"measurement": "No. green mirid adults and nymphs per meter", "setting": "[1]; 14 DAT", "value": "0.00 ± 0.00", "unit": "a per meter"},
      {"measurement": "No. green mirid adults and nymphs per meter", "setting": "[1]; 21 DAT", "value": "0.00 ± 0.00", "unit": "a per meter"},
      {"measurement": "No. green mirid adults and nymphs per meter", "setting": "[1]; pre-spray counts", "value": "4.33 ± 0.67", "unit": "a per meter"},
      {"measurement": "adult mirids found on treated plots", "setting": "green mirids; at the second spray application", "value": "no adult mirids were found"},
      {"measurement": "adult and nymph green mirids versus unsprayed (control) plots", "setting": "green mirids; different rates of DAT 511, fipronil 62.5 mL/ha, P<0.0001", "value": "Significantly fewer"},
      {"measurement": "mirid nymphs found on treated plots", "setting": "green mirids; seven days after second spray, DAT 511 500 mL and 1.0 L/ha, fipronil", "value": "no mirid nymphs were found"},
      {"measurement": "number of spiders versus unsprayed (control) plots", "setting": "spiders", "value": "No significant difference"}
    ]}
  ]
}
